From ChEMBL document CHEMBL1125506, “Fluoronaphthyridines as antibacterial agents. 6. Synthesis and structure-activity relationships of new chiral 7-(1-, 3-, 4-, and 6-methyl-2,5-diazabicyclo[2.2.1]heptan-2-yl)naphthyridine analogues of 7-[(1R,4R)-2,5- diazabicyclo[2.2.1]heptan-2-yl]-1-(1,1-dimethylethyl)-6-fluoro-1,4-dihy …” (J Med Chem, 1992)
Values after ≈ are worked out from the molar mass of the structure shown.

Tests used:
Staphylococcus aureus = experiment: In vitro antibacterial activity against Staphylococcus aureus A9537; type: functional
Escherichia coli = experiment: In vitro antibacterial activity against Escherichia coli A15119; type: functional
Enterobacter cloacae = experiment: In vitro antibacterial activity against Enterobacter cloacae A9656; type: functional
Morganella morganii = experiment: In vitro antibacterial activity against Morganella morganii A15153; type: functional
[1] = Solubility (water, 22C, pH 7.2); type: physicochemical; settings: read-out: S
Proteus mirabilis = experiment: In vitro antibacterial activity against Proteus mirabilis A9900; type: functional
[2] = Partition coefficient (logD); type: physicochemical; settings: octanol/water
Klebsiella pneumoniae = experiment: In vitro antibacterial activity against Klebsiella pneumoniae A9664; type: functional
Enterococcus faecalis = experiment: In vitro antibacterial activity against Enterococcus faecalis A9809; type: functional
Bacteroides fragilis = experiment: In vitro antibacterial activity against Bacteroides fragilis A-22,862; type: functional
Serratia marcescens = experiment: In vitro antibacterial activity against Serratia marcescens A20019; type: functional
Pseudomonas aeruginosa = experiment: In vitro antibacterial activity against Pseudomonas aeruginosa A9843; type: functional
Streptococcus pneumoniae = experiment: In vitro antibacterial activity against Streptococcus pneumoniae A9585.; type: functional
[3] = Peak concentration in blood after peroral administration to mice; type: ADME, organism-based; design: route oral; settings: mouse, po
Mus musculus [4] = experiment: Area under curve measured as conc vs time after intravenous administration to mice.; type: ADME, organism-based; design: unit not given here; settings: in vivo
Mus musculus [5] = experiment: In vivo efficacy on systemic infections caused by Pseudomonas aeruginosa A9843 in mice after peroral administration; type: functional; settings: po, read-out: PD50
Mus musculus [6] = experiment: Area under curve measured as conc vs time after peroral administration to mice.; type: ADME, organism-based; design: unit not given here; settings: in vivo, po
[7] = Plasma half-life after peroral administration to mice; type: ADME, organism-based; settings: mouse, po
[8] = Plasma half-life after intravenous administration to mice; type: ADME, organism-based; settings: mouse
[9] = Peak concentration in blood after intravenous administration to mice; type: ADME, organism-based; design: route intravenous; settings: mouse
Mus musculus [10] = experiment: In vivo efficacy on systemic infections caused by Pseudomonas aeruginosa A9843 in mice after intramuscular administration; type: functional; settings: im, read-out: PD50
Mus musculus [11] = experiment: In vivo efficacy on systemic infections caused by Staphylococcus aureus A15090 in mice after peroral administration; type: functional; settings: po, read-out: PD50
[12] = percent urinary recovery in 24 hr after intravenous administration to mice; type: ADME, organism-based; settings: mouse, urine, read-out: UR
[13] = Percent urinary recovery in 24 hr after peroral administration to mice; type: ADME, organism-based; settings: mouse, urine, po; read-out: UR
Mus musculus [14] = experiment: In vivo efficacy on systemic infections caused by Streptococcus pneumoniae A9585 in mice after peroral administration; type: functional; settings: po, read-out: PD50
Mus musculus [15] = experiment: In vivo efficacy on systemic infections caused by Streptococcus pneumoniae A9585 in mice after intramuscular administration; type: functional; settings: im, read-out: PD50
Mus musculus [16] = experiment: In vivo efficacy on systemic infections caused by Staphylococcus aureus A15090 in mice after intramuscular administration; type: functional; settings: im, read-out: PD50
[17] = Acute toxicity after peroral administration to mice; type: organism-based; settings: mouse, in vivo, po
[18] = Acute toxicity after intravenous administration to mice; type: organism-based; settings: mouse, in vivo
Mus musculus [19] = experiment: In vivo efficacy on systemic infections caused by Escherichia coli A15119 in mice after peroral administration; type: functional; settings: po, read-out: PD50
Mus musculus [20] = experiment: In vivo efficacy on systemic infections caused by Escherichia coli A15119 in mice after intramuscular administration; type: functional; settings: im, read-out: PD50

Structure (SMILES)	MIC (Staphylococcus aureus) [µg/mL]	MIC (Escherichia coli) [µg/mL]	MIC (Enterobacter cloacae) [µg/mL]	MIC (Morganella morganii) [µg/mL]	solubility [1] [µg/mL]	MIC (Proteus mirabilis) [µg/mL]	logD [2]	MIC (Klebsiella pneumoniae) [µg/mL]	MIC (Enterococcus faecalis) [µg/mL]	MIC (Bacteroides fragilis) [µg/mL]	MIC (Serratia marcescens) [µg/mL]	MIC (Pseudomonas aeruginosa) [µg/mL]	MIC (Streptococcus pneumoniae) [µg/mL]	Cmax [3] [ng/mL]	AUC (Mus musculus [4])	ED50 (Mus musculus [5]) [mg/kg]	AUC (Mus musculus [6])	half-life [7] [h]	half-life [8] [h]	Cmax [9] [ng/mL]	further results
Cc1c(F)c(N2C[C@H]3C[C@@H]2[C@H](C)N3)nc2c1c(=O)c(C(=O)O)cn2C(C)(C)C.Cl	0.016	0.03	0.03	0.5	250	0.5	1.3	0.13	0.5	16	0.5	2	0.5								
C[C@H]1N[C@@H]2C[C@H]1N(c1nc3c(cc1F)c(=O)c(C(=O)O)cn3C(C)(C)C)C2.Cl	0.06	0.03	0.06	1	6340	0.5	-0.12	0.5	1	4	0.25	2	0.5	11000	18	9.5	8	0.733	0.75	23000	ED50 (Mus musculus [10]): 12.5 mg/kg; ED50 (Mus musculus [11]): 16.5 mg/kg; dose excreted at 24 h [12]: 18%; dose excreted at 24 h [13]: 17%
Cc1c(F)c(N2[C@H]3CN[C@H](C3)[C@@H]2C)nc2c1c(=O)c(C(=O)O)cn2C1CC1.Cl	0.016	0.016	0.016	0.13	70	0.13	0.73	0.016	0.25	4	0.13	0.25	0.13								
C[C@@H]1N[C@@H]2C[C@H]1N(c1nc3c(cc1F)c(=O)c(C(=O)O)cn3C(C)(C)C)C2.Cl	0.03	0.008	0.03	0.13	25	0.13	0.1	0.03	0.25	2	0.13	0.5	0.25	9000	22	2.7	41	2.63	1.22	22000	ED50 (Mus musculus [14]): 25 mg/kg; ED50 (Mus musculus [15]): 14.4 mg/kg; ED50 (Mus musculus [16]): 0.9 mg/kg; LD50 [17]: > 2500 mg/kg; ED50 (Mus musculus [10]): 1.6 mg/kg; ED50 (Mus musculus [11]): 1.6 mg/kg; dose excreted at 24 h [12]: 16%; dose excreted at 24 h [13]: 18%; LD50 [18]: 263 mg/kg
CC(C)(C)n1cc(C(=O)O)c(=O)c2cc(F)c(N3C[C@@]4(C)C[C@@H]3CN4)nc21.Cl	0.03	0.03	0.016	0.25	67	0.25	0.02	0.03	1	16	0.13	1	0.5								
C[C@H]1[C@H]2C[C@H](CN2)N1c1nc2c(cc1F)c(=O)c(C(=O)O)cn2C(C)(C)C.Cl	0.06	0.03	0.13	1	1330	1	-0.22	0.5	1	8	0.25	2	1	9000	22	22	17	1.08	1.22	22000	ED50 (Mus musculus [10]): 12.5 mg/kg; ED50 (Mus musculus [11]): 5.4 mg/kg; dose excreted at 24 h [12]: 16%; dose excreted at 24 h [13]: 16%
Cc1c(F)c(N2C[C@H]3C[C@@H]2CN3)nc2c1c(=O)c(C(=O)O)cn2C1CC1	0.016 (≈ 0.0446 µM)	0.02 (≈ 0.0558 µM)	0.002 (≈ 0.00558 µM)	0.03 (≈ 0.0837 µM)	20 (≈ 55.8 µM)	0.03 (≈ 0.0837 µM)	0.48	0.008 (≈ 0.0223 µM)	0.06 (≈ 0.167 µM)	1 (≈ 2.79 µM)	0.006 (≈ 0.0167 µM)	0.006 (≈ 0.0167 µM)	0.06 (≈ 0.167 µM)	9000	40	2.7	26	1.28	1.5	19000	ED50 (Mus musculus [14]): 43.5 mg/kg; ED50 (Mus musculus [19]): 0.9 mg/kg; ED50 (Mus musculus [15]): > 25 mg/kg; ED50 (Mus musculus [16]): 2.4 mg/kg; ED50 (Mus musculus [20]): 0.2 mg/kg; LD50 [17]: 1750 mg/kg; ED50 (Mus musculus [11]): 5.4 mg/kg; dose excreted at 24 h [12]: 41%; dose excreted at 24 h [13]: 34%; LD50 [18]: 125 mg/kg
